pEC50: −log10 of the molar value. Where two headings read alike, the source gives them in different places.
Legend:
Assay type in all cases: cell-based
[1] = target: T1, human muscarinic M2 receptor (Homo sapiens, UniProt P08172); test: Alphascreen Surefire phospho-ERK1/2 functional assay, M2; details: for % Emax cf. ACh, M2 / Emax: Emax relative to ACh; for pEC50: pEC50 M2, CHO cells stably expressing human M2; for Emax: CHO, read-out: % Emax cf. ACh, M2, CHO cells stably expressing human M2
T1 sequence (P08172 1-466): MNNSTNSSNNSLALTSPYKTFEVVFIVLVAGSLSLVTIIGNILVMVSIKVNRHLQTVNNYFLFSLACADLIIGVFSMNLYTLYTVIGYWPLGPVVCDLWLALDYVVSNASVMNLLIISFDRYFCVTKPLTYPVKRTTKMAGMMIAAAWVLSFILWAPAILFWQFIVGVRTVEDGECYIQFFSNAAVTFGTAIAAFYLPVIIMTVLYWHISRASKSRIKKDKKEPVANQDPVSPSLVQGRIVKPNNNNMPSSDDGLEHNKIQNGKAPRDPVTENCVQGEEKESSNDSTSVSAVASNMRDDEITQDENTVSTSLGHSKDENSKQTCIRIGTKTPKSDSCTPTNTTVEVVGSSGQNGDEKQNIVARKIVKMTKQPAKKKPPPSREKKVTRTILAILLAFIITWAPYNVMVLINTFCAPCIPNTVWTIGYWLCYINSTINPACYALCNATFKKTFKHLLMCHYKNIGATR
Protocol: (§1) ERK1/2 phosphorylation is a downstream consequence of both Gq/11 and Gi/o protein coupled receptor activation, making it highly suitable for the assessment of M1, M3 (Gq/11 coupled) and M2, M4 receptors (Gi/o coupled), rather than using different assay formats for different receptor subtypes. CHO cells stably expressing the human muscarinic M1, M2, M3 or M4 receptor were plated (25K/well) onto 96-well tissue culture plates in MEM-alpha+10% dialysed FBS. Once adhered, cells were serum-starved overnight. Agonist stimulation was performed by the addition of 5 μL agonist to the cells for 5 min (37° C.). Media was removed and 50 μL of lysis buffer added. After 15 min, a 4 μL sample was transferred to 384-well plate and 7 μL of detection mixture added.
(§2) Isomer assignment (Isomer 1, Isomer 2, etc.) is based on the retention time of the compound using the separation technique that was performed in the final purification step. By implication, this could be reversed phase HPLC, chiral HPLC or chiral SFC retention time, and this will vary from compound to compound.

[2] = target: T2, human muscarinic M3 receptor (Homo sapiens, UniProt P20309); test: Alphascreen Surefire phospho-ERK1/2 functional assay, M3; details: for Emax: CHO, read-out: % Emax cf. ACh, M3, CHO cells stably expressing human M3; for Emax / % Emax cf. ACh, M3: Emax relative to ACh; for pEC50: pEC50 M3, CHO cells stably expressing human M3
T2 construct: expressed in transfected cells
Protocol: as §1, §2

[3] = target: T3, human muscarinic M4 receptor (Homo sapiens, UniProt P08173); test: Alphascreen Surefire phospho-ERK1/2 functional assay, M4; details: for pEC50: pEC50 M4, CHO cells stably expressing human M4
T3 sequence (P08173 1-479): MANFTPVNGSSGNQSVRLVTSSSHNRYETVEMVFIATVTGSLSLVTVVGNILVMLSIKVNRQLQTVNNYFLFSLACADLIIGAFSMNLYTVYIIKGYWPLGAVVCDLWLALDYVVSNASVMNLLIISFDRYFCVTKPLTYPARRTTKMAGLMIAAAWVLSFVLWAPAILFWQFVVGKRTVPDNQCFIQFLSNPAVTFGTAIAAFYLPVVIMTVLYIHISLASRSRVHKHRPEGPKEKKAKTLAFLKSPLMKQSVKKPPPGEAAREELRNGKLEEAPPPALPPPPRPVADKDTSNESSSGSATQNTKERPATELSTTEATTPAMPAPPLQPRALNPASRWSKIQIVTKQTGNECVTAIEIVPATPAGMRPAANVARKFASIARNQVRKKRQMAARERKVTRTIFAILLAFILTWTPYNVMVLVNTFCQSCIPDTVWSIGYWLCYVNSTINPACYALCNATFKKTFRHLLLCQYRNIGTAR
Protocol: as §1, §2

[4] = target: T4, human muscarinic M1 receptor (Homo sapiens, UniProt P11229); test: Alphascreen Surefire phospho-ERK1/2 functional assay, M1; details: for % Emax cf. ACh, M1 / Emax: Emax relative to ACh; for pEC50: pEC50 M1, CHO cells stably expressing human M1; for Emax: CHO, read-out: % Emax cf. ACh, M1, CHO cells stably expressing human M1
T4 sequence (P11229 1-460): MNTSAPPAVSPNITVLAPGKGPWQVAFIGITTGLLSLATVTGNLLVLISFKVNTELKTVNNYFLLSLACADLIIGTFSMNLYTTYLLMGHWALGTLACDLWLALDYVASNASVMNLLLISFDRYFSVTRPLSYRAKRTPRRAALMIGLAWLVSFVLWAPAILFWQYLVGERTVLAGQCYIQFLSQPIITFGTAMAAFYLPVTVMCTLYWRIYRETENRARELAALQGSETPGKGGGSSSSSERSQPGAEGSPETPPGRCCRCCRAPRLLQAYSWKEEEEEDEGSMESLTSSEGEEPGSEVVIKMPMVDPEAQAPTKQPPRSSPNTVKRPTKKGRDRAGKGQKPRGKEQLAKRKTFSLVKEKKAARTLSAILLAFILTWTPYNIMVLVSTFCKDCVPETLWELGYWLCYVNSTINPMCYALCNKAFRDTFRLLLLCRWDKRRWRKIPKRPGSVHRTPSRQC
Protocol: as §1, with “Functional assays were performed using the Alphascreen Surefire phospho-ERK1/2 assay (Crouch & Osmond, Comb. Chem. High Throughput Screen, 2008). ERK1/2” for “ERK1/2”
as §2, with “For the vast majority of examples at least two diastereomers exist and these have been separated, unless otherwise stated, using the techniques of reversed phase HPLC, chiral HPLC or chiral SFC. Isomer assignment” for “Isomer assignment”

[5] = CHO cells stably expressing human M3

T2 sequence (P20309 whole entry): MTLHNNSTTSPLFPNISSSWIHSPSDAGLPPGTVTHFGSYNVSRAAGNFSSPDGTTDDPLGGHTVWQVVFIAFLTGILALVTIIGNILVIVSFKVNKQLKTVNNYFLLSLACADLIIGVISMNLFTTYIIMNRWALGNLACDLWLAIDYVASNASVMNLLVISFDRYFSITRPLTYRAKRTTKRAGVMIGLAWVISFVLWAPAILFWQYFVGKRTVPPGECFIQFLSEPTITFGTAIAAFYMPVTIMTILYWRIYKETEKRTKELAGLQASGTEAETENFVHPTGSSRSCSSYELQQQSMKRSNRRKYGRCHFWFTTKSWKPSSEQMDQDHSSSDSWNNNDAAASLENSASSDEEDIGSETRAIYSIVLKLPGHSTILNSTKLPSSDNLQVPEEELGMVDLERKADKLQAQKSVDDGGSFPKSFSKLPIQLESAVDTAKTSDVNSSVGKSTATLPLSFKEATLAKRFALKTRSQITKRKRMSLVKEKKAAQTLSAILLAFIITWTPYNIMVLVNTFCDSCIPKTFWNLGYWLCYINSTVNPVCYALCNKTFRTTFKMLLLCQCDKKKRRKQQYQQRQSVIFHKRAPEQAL

CCOC(=O)N1C2COCC1CC(N1CCC(n3cc(Cl)cn3)CC1)C2 (single isomer, unassigned) [Example 1-2 Isomer 2, Ethyl 7-[4-(4-chloro-1H-pyrazol-1-yl)piperidin-1-yl]-3-oxa-9-azabicyclo[3.3.1]nonane-9-carboxylate]
% Emax cf. ACh, M2 ([1]; CHO cells stably expressing human M2, listed as 1-2 Isomer 2): 10%
pEC50 ([1]; phospho-ERK1/2): < 4.70
Emax [2]: 2%
pEC50 ([2]; phospho-ERK1/2): < 4.70
% Emax cf. ACh, M4 ([3]; CHO cells stably expressing human M4, Emax relative to ACh, listed as 1-2 Isomer 2): 51%
pEC50 ([3]; phospho-ERK1/2): 7.88
% Emax cf. ACh, M1 ([4]; CHO cells stably expressing human M1, listed as 1-2 Isomer 2): 67%
pEC50 ([4]; phospho-ERK1/2): 7.11

CCOC(=O)N1C2COCC1CC(N1CCC(C(=O)NCC3CCC3)CC1)C2 (single isomer, unassigned) [Example 7-3 Isomer 1, Ethyl 7-{4-[(cyclobutylmethyl)carbamoyl]piperidin-1-yl}-3-oxa-9-azabicyclo[3.3.1]nonane-9-carboxylate]
Emax [1]: 62%
pEC50 ([1]; phospho-ERK1/2): 5.83
Emax [2]: 57%
pEC50 ([2]; phospho-ERK1/2): < 4.70
Emax ([3]; CHO, read-out: % Emax cf. ACh, M4, CHO cells stably expressing human M4, Emax relative to ACh): 97%
pEC50 ([3]; phospho-ERK1/2): 6.56
Emax [4]: 100%
pEC50 ([4]; phospho-ERK1/2): 7.45

CCOC(=O)N1C2COCC1CC(N1CCC(N3CC(F)(F)C[C@@H]3CO)CC1)C2 (single isomer, unassigned) [Example 4-1 Isomer 2]
% Emax cf. ACh, M2 ([1]; CHO cells stably expressing human M2, listed as 4-1 Isomer 2): 17%
pEC50 ([1]; phospho-ERK1/2): < 4.70
% Emax cf. ACh, M3 ([2]; CHO cells stably expressing human M3, listed as 4-1 Isomer 2): 4%
% Emax cf. ACh, M4 ([3]; CHO cells stably expressing human M4, Emax relative to ACh, listed as 4-1 Isomer 2): 59%
pEC50 ([3]; phospho-ERK1/2): 7.00
% Emax cf. ACh, M1 ([4]; CHO cells stably expressing human M1, listed as 4-1 Isomer 2): 47%
pEC50 ([4]; phospho-ERK1/2): 6.40

CCOC(=O)N1C2COCC1CC(N1CCC3(CC1)OC(=O)NC3CC)C2 (single isomer, unassigned) [Example 5-4 Isomer 2b, Ethyl 7-(4-ethyl-2-oxo-1-oxa-3,8-diazaspiro[4.5]dec-8-yl)-3-oxa-9-azabicyclo[3.3.1]nonane-9-carboxylate]
% Emax cf. ACh, M2 ([1]; CHO cells stably expressing human M2, listed as 5-4 Isomer 2b): 1%
% Emax cf. ACh, M3 [2, 5]: 4%
% Emax cf. ACh, M4 ([3]; CHO cells stably expressing human M4, Emax relative to ACh, listed as 5-4 Isomer 2b): 20%
pEC50 ([3]; phospho-ERK1/2): < 4.70
% Emax cf. ACh, M1 ([4]; CHO cells stably expressing human M1, listed as 5-4 Isomer 2b): 25%
pEC50 ([4]; phospho-ERK1/2): 7.13

CCOC(=O)N1C2COCC1CC(N1CCC(N(CC(C)C)C(C)=O)CC1)C2 (single isomer, unassigned) [Example 6-1 Isomer 1, Ethyl 7-{4-[acetyl(2-methylpropyl)amino]piperidin-1-yl}-3-oxa-9-azabicyclo[3.3.1]nonane-9-carboxylate]
% Emax cf. ACh, M2 ([1]; CHO cells stably expressing human M2, listed as 6-1 Isomer 1): 26%
pEC50 ([1]; phospho-ERK1/2): < 4.70
% Emax cf. ACh, M3 ([2]; CHO cells stably expressing human M3, listed as 6-1 Isomer 1): 7%
pEC50 ([2]; phospho-ERK1/2): < 4.70
% Emax cf. ACh, M4 ([3]; CHO cells stably expressing human M4, Emax relative to ACh, listed as 6-1 Isomer 1): 77%
pEC50 ([3]; phospho-ERK1/2): 6.82
Emax [4]: 93%
pEC50 ([4]; phospho-ERK1/2): 6.75

CCOC(=O)N1C2COCC1CC(N1CCC(n3cc(Cl)cn3)CC1)C2 (single isomer, unassigned) [Example 1-2 Isomer 1, Ethyl 7-[4-(4-chloro-1H-pyrazol-1-yl)piperidin-1-yl]-3-oxa-9-azabicyclo[3.3.1]nonane-9-carboxylate]
% Emax cf. ACh, M2 ([1]; CHO cells stably expressing human M2, listed as 1-2 Isomer 1): 69%
pEC50 ([1]; phospho-ERK1/2): 7.06
% Emax cf. ACh, M3 [2, 5]: 2%
% Emax cf. ACh, M4 ([3]; CHO cells stably expressing human M4, Emax relative to ACh, listed as 1-2 Isomer 1): 78%
pEC50 ([3]; phospho-ERK1/2): 8.54
% Emax cf. ACh, M1 ([4]; CHO cells stably expressing human M1, listed as 1-2 Isomer 1): 96%
pEC50 ([4]; phospho-ERK1/2): 7.82

CCOC(=O)N1C2COCC1CC(N1CCC3(CC1)CNC(=O)O3)C2 (single isomer, unassigned) [Example 5-3 Isomer 2, Ethyl 7-(2-oxo-1-oxa-3,8-diazaspiro[4.5]dec-8-yl)-3-oxa-9-azabicyclo[3.3.1]nonane-9-carboxylate]
EC50 ([1]; CHO cells stably expressing human M2, phospho-ERK1/2, read-out: pEC50 M2 (converted)): > 20000 nM
Emax [1]: 4%
EC50 ([2]; CHO cells stably expressing human M3, phospho-ERK1/2, read-out: pEC50 M3 (converted)): > 20000 nM
Emax [2]: 5%
% Emax cf. ACh, M4 ([3]; CHO cells stably expressing human M4, Emax relative to ACh): 17%
EC50 ([3]; CHO cells stably expressing human M4, phospho-ERK1/2, read-out: pEC50 M4 (converted)): > 20000 nM
% Emax cf. ACh, M1 ([4]; CHO cells stably expressing human M1): 73%
EC50 ([4]; CHO cells stably expressing human M1, phospho-ERK1/2, read-out: pEC50 M1 (converted)): 126 nM

CCOC(=O)N1C2COCC1CC(N1CCC(N3CCCCC3=O)CC1)C2 (single isomer, unassigned) [Example 6-6 Isomer 1, Ethyl 7-(2-oxo-1,4′-bipiperidin-1′-yl)-3-oxa-9-azabicyclo[3.3.1]nonane-9-carboxylate]
% Emax cf. ACh, M2 ([1]; CHO cells stably expressing human M2, listed as 6-6 Isomer 1): 60%
pEC50 ([1]; phospho-ERK1/2): 6.47
% Emax cf. ACh, M3 ([2]; CHO cells stably expressing human M3, listed as 6-6 Isomer 1): 7%
pEC50 ([2]; phospho-ERK1/2): < 4.70
% Emax cf. ACh, M4 ([3]; CHO cells stably expressing human M4, Emax relative to ACh, listed as 6-6 Isomer 1): 109%
pEC50 ([3]; phospho-ERK1/2): 7.72
% Emax cf. ACh, M1 ([4]; CHO cells stably expressing human M1, listed as 6-6 Isomer 1): 103%
pEC50 ([4]; phospho-ERK1/2): 6.60
